# In patent publication US20240409585A1, “MACROCYCLIC IMMUNOMODULATORS” (priority 2021, published 2024):
# Bridge positions count the residues as written; N and C are the ends. Square brackets hold non-standard residues; d marks the D form. Peptide text beside a SMILES is read from it. * marks the point of attachment. ξ: configuration not given here. Phe(4-COOH) = N[C@@H](Cc1ccc(C(=O)O)cc1)C(=O)O; Bip = N[C@@H](Cc1ccc(-c2ccccc2)cc1)C(=O)O; Phe(3-OMe) = COc1cccc(C[C@H](N)C(=O)O)c1; Phe(3-Me) = Cc1cccc(C[C@H](N)C(=O)O)c1; Nva(4-oxo) = CC(=O)C[C@H](N)C(=O)O; mTyr = N[C@@H](Cc1cccc(O)c1)C(=O)O; aIle = CC[C@@H](C)[C@H](N)C(=O)O; Cha = N[C@@H](CC1CCCCC1)C(=O)O; Thr(3ξ) = CC(O)[C@H](N)C(=O)O; Carboxymethyl = O=C(O)C*; NMeA = CN[C@@H](C)C(=O)O; Dab = NCC[C@H](N)C(=O)O; Dap = NC[C@H](N)C(=O)O; Piv = CC(C)(C)C(=O)*; ξV = CC(C)C(N)C(=O)O
# Molecular target: T1, PE-labeled human PD-L1-Ig binding to Jurkat cell line over-expressing human PD-1 (Jurkat-PD-1) (Homo sapiens, UniProt Q15116)
# T1 construct: expressed in transfected cells; host or cells: Jurkat
# T1 sequence (Q15116 25-288): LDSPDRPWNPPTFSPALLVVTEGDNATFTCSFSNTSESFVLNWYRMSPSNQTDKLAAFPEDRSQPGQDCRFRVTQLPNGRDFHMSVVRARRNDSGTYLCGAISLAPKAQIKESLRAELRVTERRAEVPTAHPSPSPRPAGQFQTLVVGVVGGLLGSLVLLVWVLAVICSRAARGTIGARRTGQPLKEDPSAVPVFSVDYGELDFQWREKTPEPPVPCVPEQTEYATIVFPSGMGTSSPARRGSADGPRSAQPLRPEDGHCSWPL
# Experiment: Jurkat-PD-1 Cell Binding High-Content Screening Assay (CBA): Method 1
# Conditions: Jurkat-hPD-1 cells, PE-labeled PD-L1-Ig 20 nM final; read-out: Jurkat HPDL1 PD1 IC50 (uM) (Method 1)
row,SMILES,IC50 [µM]
1,COc1cccc(C[C@@H]2NC(=O)[C@H](CC(=O)O)NC(=O)[C@H](Cc3ccc(O)cc3)NC(=O)[C@H](CC(N)=O)NC(=O)CSC[C@@H](C(=O)N[C@@H](C)C(N)=O)NC(=O)[C@H]([C@@H](C)O)NC(=O)[C@H](C(C)C)NC(=O)[C@H](CC(C)C)NC(=O)[C@H](CCN)NC(=O)[C@@H](CC(C)C)NC(=O)[C@H](C)N(C)C(=O)[C@H](C(C)C)NC(=O)[C@H](Cc3ccc(-c4ccccc4)cc3)NC(=O)[C@H](C(C)C)NC2=O)c1 [Compound 1277] ({CH2CO}-NYD[Phe(3-OMe)]V[Bip]V[NMeA][dL][Dab]LVTCA-NH2; thioether N-14),0.02
2,CC[C@@H](C)[C@@H]1NC(=O)[C@H](Cc2ccc(-c3ccccc3)cc2)NC(=O)[C@H](CC(C)C)NC(=O)[C@H](Cc2c[nH]c3ccccc23)NC(=O)[C@H](CC(=O)O)NC(=O)[C@H](Cc2ccc(C(=O)O)cc2)NC(=O)[C@H](Cc2ccc(OCC(=O)O)cc2)NC(=O)CSC[C@@H](C(=O)N[C@@H](CCCCN)C(N)=O)NC(=O)[C@H](CO)NC(=O)C(C(C)C)NC(=O)[C@H](CC(C)C)NC(=O)[C@H](CC(N)=O)NC(=O)[C@@H](CC(C)C)NC(=O)[C@H](C)N(C)C1=O (stereo partly drawn) [Compound 2100] ({CH2CO}-Y(Carboxymethyl)[Phe(4-COOH)]DWL[Bip][aIle][NMeA][dL]NL[ξV]SCK-NH2; thioether N-14),0.03
3,CC(C)C[C@@H]1NC(=O)[C@H](CCN)NC(=O)[C@@H](CC(C)C)NC(=O)[C@H](C)N(C)C(=O)[C@H](C(C)C)NC(=O)[C@H](Cc2ccc(-c3ccccc3)cc2)NC(=O)[C@H](C(C)C)NC(=O)[C@H](Cc2c[nH]c3ccccc23)NC(=O)[C@H](CC(=O)O)NC(=O)[C@H](Cc2cccc(O)c2)NC(=O)[C@H](CC(N)=O)NC(=O)CSC[C@@H](C(=O)N[C@@H](C)C(N)=O)NC(=O)[C@H]([C@@H](C)O)NC(=O)[C@H](C(C)C)NC1=O [Compound 1384] ({CH2CO}-N[mTyr]DWV[Bip]V[NMeA][dL][Dab]LVTCA-NH2; thioether N-14),0.02
4,Cc1cccc(C[C@@H]2NC(=O)[C@H](CC(=O)O)NC(=O)[C@H](Cc3ccc(OCC(=O)O)cc3)NC(=O)[C@H](CN)NC(=O)CSC[C@@H](C(=O)N[C@@H](CCNC(=O)C(C)(C)C)C(N)=O)NC(=O)[C@H]([C@@H](C)O)NC(=O)[C@H](C(C)C)NC(=O)[C@H](CC3CCCCC3)NC(=O)[C@H](CCN)NC(=O)[C@@H](CC(C)C)NC(=O)[C@H](C)N(C)C(=O)[C@H](Cc3ccc(OCC(=O)O)cc3)NC(=O)[C@H](Cc3ccc(-c4ccccc4)cc3)NC(=O)[C@H](Cc3ccc(OCC(=O)O)cc3)NC2=O)c1 [Compound 1866] ({CH2CO}-[Dap]Y(Carboxymethyl)D[Phe(3-Me)]Y(Carboxymethyl)[Bip]Y(Carboxymethyl)[NMeA][dL][Dab][Cha]VTC[Dab](Piv)-NH2; thioether N-14),0.05
5,Cc1cccc(C[C@@H]2NC(=O)[C@H](CC(=O)O)NC(=O)[C@H](Cc3ccc(C(=O)O)cc3)NC(=O)[C@H](Cc3ccc(OCC(=O)O)cc3)NC(=O)CSC[C@@H](C(=O)N[C@@H](C)C(N)=O)NC(=O)[C@H]([C@@H](C)O)NC(=O)[C@H](C(C)C)NC(=O)[C@H](CC(C)C)NC(=O)[C@H](CCN)NC(=O)[C@@H](CC(C)C)NC(=O)[C@H](C)N(C)C(=O)[C@H](C(C)C)NC(=O)[C@H](Cc3ccc(-c4ccccc4)cc3)NC(=O)[C@H](C(C)C)NC2=O)c1 [Compound 1571] ({CH2CO}-Y(Carboxymethyl)[Phe(4-COOH)]D[Phe(3-Me)]V[Bip]V[NMeA][dL][Dab]LVTCA-NH2; thioether N-14),0.01
6,Cc1cccc(C[C@@H]2NC(=O)[C@H](CC(=O)O)NC(=O)[C@H](Cc3ccc(C(=O)O)cc3)NC(=O)[C@H](Cc3ccc(OCC(=O)O)cc3)NC(=O)CSC[C@@H](C(N)=O)NC(=O)[C@H](CCCCN)NC(=O)[C@H](C(C)C)NC(=O)[C@H](CC(C)C)NC(=O)[C@H](CC(N)=O)NC(=O)[C@@H](CC(C)C)NC(=O)[C@H](C)N(C)C(=O)[C@H](C(C)C)NC(=O)[C@H](Cc3ccc(-c4ccccc4)cc3)NC(=O)[C@H](CC(C)C)NC2=O)c1 [Compound 2257] ({CH2CO}-Y(Carboxymethyl)[Phe(4-COOH)]D[Phe(3-Me)]L[Bip]V[NMeA][dL]NLVKC-NH2; thioether N-14),0.06
7,CC(=O)NCCCC[C@@H]1NC(=O)[C@H](C(C)C)NC(=O)[C@H](CC2CCCCC2)NC(=O)[C@H](CCN)NC(=O)[C@@H](CC(C)C)NC(=O)[C@H](C)N(C)C(=O)[C@H](Cc2cnc[nH]2)NC(=O)[C@H](Cc2ccc(-c3ccccc3)cc2)NC(=O)[C@H](C(C)C)NC(=O)[C@H](Cc2cccc(C)c2)NC(=O)[C@H](CC(=O)O)NC(=O)[C@H](Cc2ccc(OCC(=O)O)cc2)NC(=O)[C@H](Cc2ccc(OCC(=O)O)cc2)NC(=O)CSC[C@@H](C(N)=O)NC1=O [Compound 2262] ({CH2CO}-Y(Carboxymethyl)Y(Carboxymethyl)D[Phe(3-Me)]V[Bip]H[NMeA][dL][Dab][Cha]VK(Ac)C-NH2; thioether N-14),0.01

# The remaining compounds from weak to strong by IC50, led by results:
row,IC50 [µM],SMILES
1,0.01,CC[C@H](C)[C@@H]1NC(=O)[C@H](Cc2ccc(-c3ccccc3)cc2)NC(=O)[C@H](CC(C)C)NC(=O)[C@H](Cc2c[nH]c3ccccc23)NC(=O)[C@H](CC(=O)O)NC(=O)[C@H](Cc2ccc(O)cc2)NC(=O)[C@H](Cc2ccccc2)NC(=O)CSC[C@@H](C(=O)NCC(N)=O)NC(=O)[C@H](CO)NC(=O)[C@H](C(C)C)NC(=O)[C@H](CC(C)C)NC(=O)[C@H](CCN)NC(=O)[C@@H](CC(C)C)NC(=O)[C@H](C)N(C)C1=O [Compound 1511] ({CH2CO}-FYDWL[Bip]I[NMeA][dL][Dab]LVSCG-NH2; thioether N-14)
2,0.01,CC(=O)C[C@@H]1NC(=O)[C@H](Cc2ccc(OCC(=O)O)cc2)NC(=O)[C@H](Cc2ccccc2)NC(=O)CSC[C@@H](C(=O)N[C@@H](C)C(=O)N[C@@H](CCCCN)C(N)=O)NC(=O)[C@H](CO)NC(=O)[C@H](C(C)C)NC(=O)[C@H](CC(C)C)NC(=O)[C@H](CC(N)=O)NC(=O)[C@@H](CC(C)C)NC(=O)[C@H](C)N(C)C(=O)[C@H](C(C)C)NC(=O)[C@H](Cc2ccc(-c3ccccc3)cc2)NC(=O)[C@H](CC(C)C)NC(=O)[C@H](Cc2c[nH]c3ccccc23)NC1=O [Compound 2013] ({CH2CO}-FY(Carboxymethyl)[Nva(4-oxo)]WL[Bip]V[NMeA][dL]NLVSCAK-NH2; thioether N-14)
3,0.01,Cc1cccc(C[C@@H]2NC(=O)[C@H](CC(=O)O)NC(=O)[C@H](Cc3ccc(OCC(=O)O)cc3)NC(=O)[C@H](CCN)NC(=O)CSC[C@@H](C(=O)N[C@@H](CCN)C(N)=O)NC(=O)[C@H](C(C)O)NC(=O)[C@H](C(C)C)NC(=O)[C@H](CC3CCCCC3)NC(=O)[C@H](CCN)NC(=O)[C@@H](CC(C)C)NC(=O)[C@H](C)N(C)C(=O)[C@H](Cc3ccc(OCC(=O)O)cc3)NC(=O)[C@H](Cc3ccc(-c4ccccc4)cc3)NC(=O)[C@H](Cc3ccc(OCC(=O)O)cc3)NC2=O)c1 (stereo partly drawn) [Compound 2154] ({CH2CO}-[Dab]Y(Carboxymethyl)D[Phe(3-Me)]Y(Carboxymethyl)[Bip]Y(Carboxymethyl)[NMeA][dL][Dab][Cha]V[Thr(3ξ)]C[Dab]-NH2; thioether N-14)
